In patent US4177282A, “Hydantoin therapeutic agents” (priority 1978, dated 1979):
Structures can show the parent of a compound that is named as a salt. Values belong to the compound of their own block, whether it stands above or below them.

Key:
[1] = target: T1, partially purified aldose reductase enzyme obtained from calf lens (Bos taurus, UniProt P16116); assay: inhibition of isolated aldose reductase enzyme activity (procedure of S. Hayman et al., as modified by K. Sestanj et al.); format: biochemical; details: for inhibition at 100 µM / inhibition at 10 µM / inhibition at 1 µM / inhibition at 0.1 µM / Percent Inhibition (%) of aldose reductase enzyme activity: calf lens enzyme; for inhibition at 100 µM / inhibition at 10 µM / inhibition at 1 µM / inhibition at 0.1 µM: read-out: Percent Inhibition (%) of aldose reductase enzyme activity
T1 construct: partially purified aldose reductase enzyme obtained from calf lens; from tissue; host or cells: calf lens
Description: (§1) The activity of the compounds of the present invention, as agents for the control of chronic diabetic complications, is determined by their ability to successfully pass one or more of the following standard biological and/or pharmacological tests, viz., (1) measuring their ability to inhibit the enzyme activity of isolated aldose reductase; (2) measuring their ability to reduce or inhibit sorbitol accumulation in the sciatic nerve of acutely streptozotocinized (i.e., diabetic) rats; (3) measuring their ability to reverse alredy-elevated sorbitol levels in the sciatic nerve and lens of chronic streptozotocin-induced diabetic rats; (4) measuring their ability to prevent or inhibit galactitol formation in the lens of acutely galactosemic rats, and (5) measuring their ability to delay cataract formation and reduce the severity of lens opacities in chronic galactosemic rats.
In every case, the substrate employed was partially purified aldose reductase enzyme obtained from calf lens.

[2] = system: sorbitol accumulation in the sciatic nerve of streptozotocinized (i.e., diabetic) rats; assay: inhibition of sorbitol accumulation in the sciatic nerve of streptozotocinized (diabetic) rats; format: in vivo, rat; details: measured at 27 hours, vs untreated
Description: as §1
The following spiro-hydantoin compounds of Preparations B and C and Examples I-II, respectively, were tested for their ability to reduce or inhibit sorbitol accumulation in the sciatic nerve of streptozotocinized (i.e., diabetic) rats by the procedure essentially described in U.S. Pat. No. 3,821,383. In the present study, the amount of sorbitol accumulation in the sciatic nerves was measured 27 hours after induction of diabetes. The compounds were administered orally at the dose levels indicated 4, 8 and 24 hours following the administration of streptozotocin. The results obtained in this manner are presented below in terms of percent inhibition (%) afforded by the test compound as compared to the case where no compound was administered (i.e., the untreated animal where sorbitol levels normally rise from approximately 50-100 mM/g. tissue to as high as 400 mM/g. tissue in the 27-hour test period): […]

[3] = system: galactitol levels in the lens of galactosemic subjects; assay: lowering of galactitol levels in the lens of galactosemic subjects; format: in vivo, rat
Description: as §1

[4] = system: sorbitol levels in diabetic rats; assay: control (inhibition) of formation of sorbitol levels in diabetic rats, oral; format: in vivo, rat; details: 0.25 mg./kg. to 5.0 mg./kg.
From the text: As previously indicated, the dextrorotatory spiro-hydantoin compounds of this invention are all readily adapted to therapeutic use as aldose reductase inhibitors for the control of chronic diabetic complications, in view of their ability to reduce lens sorbitol levels in diabetic subjects to a statistically significant degree. […] The other compounds of this invention also cause similar results. Furthermore, the herein described compounds of this invention can be administered by either the oral or parenteral routes of administration, for the present purposes at hand, without causing any significant untoward pharmacological side reactions to occur in the subject to whom they are so administered. In general, these compounds are ordinarily administered in dosages ranging from about 0.05 mg. to about 5.0 mg. per kg. of body weight per day, although variations will necessarily occur depending upon the weight and condition of the subject being treated and the particular route of administration chosen.

[5] = system: sorbitol levels in the sciatic nerve and lens of diabetic subjects; assay: lowering of sorbitol levels in the sciatic nerve and lens of diabetic subjects; format: in vivo, rat
Description: as §1

[6] = solubility in water; format: physicochemical; details: amorphous powder, freeze-dried
[7] = 0.25 mg./kg. orally at 4, 8 and 24 hours after streptozotocin
[8] = 0.75 mg./kg. orally at 4, 8 and 24 hours after streptozotocin
[9] = 1.5 mg./kg. orally at 4, 8 and 24 hours after streptozotocin
[10] = 2.5 mg./kg. orally at 4, 8 and 24 hours after streptozotocin

Compound: O=C1NC(=O)C2(CCOc3ccc(F)cc32)N1 (single isomer, unassigned) [1-Isomer of Ex. I, l-6-fluoro-spiro-[chroman-4,4'-imidazolidine]-2',5'-dione]
Percent Inhibition (%) of aldose reductase enzyme activity ([1]; 10^-4 M): 88%
Percent Inhibition (%) of aldose reductase enzyme activity ([1]; 10^-5 M): 63%
Percent Inhibition (%) of aldose reductase enzyme activity ([1]; 10^-6 M): 23%
Percent Inhibition (%) of aldose reductase enzyme activity ([1]; 10^-7 M): -4%
Percent Inhibition (%) of sorbitol accumulation in the sciatic nerve [2, 8]: 19%
Percent Inhibition (%) of sorbitol accumulation in the sciatic nerve [2, 10]: 6%
Percent Inhibition (%) of sorbitol accumulation in the sciatic nerve ([2]; 5.0 mg./kg. orally at 4, 8 and 24 hours after streptozotocin): 22%

Compound: O=C1NC(=O)C2(CCSc3ccc(F)cc32)N1 (single isomer, unassigned) [1-Isomer of Ex. II, l-6'-fluoro-spiro-[imidazolidine-4,4'-thiochroman]-2,5-dione]
Percent Inhibition (%) of aldose reductase enzyme activity ([1]; 10^-4 M): 87%
Percent Inhibition (%) of aldose reductase enzyme activity ([1]; 10^-5 M): 65%
Percent Inhibition (%) of aldose reductase enzyme activity ([1]; 10^-6 M): 11%
Percent Inhibition (%) of aldose reductase enzyme activity ([1]; 10^-7 M): 10%

Compound: O=C1NC(=O)C2(CCOc3ccc(F)cc32)N1 (single isomer, unassigned) [d-Isomer of Ex. I, d-6-fluoro-spiro-[chroman-4,4'-imidazolidine]-2',5'-dione]
lowering galactitol levels in the lens (in words) [3]: to a very significantly high degree
control (i.e., inhibit) the formation of sorbitol levels (in words) [4]: to a significantly high degree
lowering sorbitol levels in the sciatic nerve and lens (in words) [5]: equally effective in lowering sorbitol levels in the sciatic nerve and lens of diabetic subjects
aldose reductase inhibitory activity (in words) [1]: extremely potent
inhibition at 100 µM ([1]; 10^-4 M): 100%
Percent Inhibition (%) of aldose reductase enzyme activity ([1]; 10^-6 M): 98%
Percent Inhibition (%) of aldose reductase enzyme activity ([1]; 10^-7 M): 39%
Percent Inhibition (%) of sorbitol accumulation in the sciatic nerve [2, 7]: 47%
Percent Inhibition (%) of sorbitol accumulation in the sciatic nerve [2, 8]: 78%

Compound: O=C1NC(=O)C2(CCSc3ccc(F)cc32)N1 (single isomer, unassigned) [d-Isomer of Ex. II, d-6'-fluoro-spiro-[imidazolidine-4,4'-thiochroman]-2,5-dione]
lowering galactitol levels in the lens (in words) [3]: to a very significantly high degree
lowering sorbitol levels in the sciatic nerve and lens (in words) [5]: equally effective in lowering sorbitol levels in the sciatic nerve and lens of diabetic subjects
aldose reductase inhibitory activity (in words) [1]: extremely potent
inhibition at 100 µM ([1]; 10^-4 M): 89%
inhibition at 10 µM ([1]; 10^-5 M): 80%
Percent Inhibition (%) of aldose reductase enzyme activity ([1]; 10^-6 M): 76%
Percent Inhibition (%) of aldose reductase enzyme activity ([1]; 10^-7 M): 74%
Percent Inhibition (%) of sorbitol accumulation in the sciatic nerve [2, 8]: 55%

More lines, main results first:

inhibition at 100 µM ([1]; 10^-4 M): 85%
inhibition at 10 µM ([1]; 10^-5 M): 58%
inhibition at 1 µM ([1]; 10^-6 M): 52%
inhibition at 0.1 µM ([1]; 10^-7 M): 3%
Compound: O=C1NC(=O)C2(CCOc3ccc(F)cc32)N1 (racemic) [dl-Cpd. of Prep. B, dl-6-fluoro-spiro-[chroman-4,4'-imidazolidine]-2',5'-dione]
Percent Inhibition (%) of sorbitol accumulation in the sciatic nerve [2, 7]: 19%
Percent Inhibition (%) of sorbitol accumulation in the sciatic nerve [2, 8]: 45%
Percent Inhibition (%) of sorbitol accumulation in the sciatic nerve [2, 9]: 72%

inhibition at 100 µM ([1]; 10^-4 M): 81%
inhibition at 10 µM ([1]; 10^-5 M): 77%
inhibition at 1 µM ([1]; 10^-6 M): 66%
inhibition at 0.1 µM ([1]; 10^-7 M): 38%
Compound: O=C1NC(=O)C2(CCSc3ccc(F)cc32)N1 (racemic) [dl-Cpd. of Prep. C, dl-6'-fluoro-spiro-[imidazolidine-4,4'-thiochroman]-2,5-dione]
Percent Inhibition (%) of sorbitol accumulation in the sciatic nerve [2, 8]: 13%
Percent Inhibition (%) of sorbitol accumulation in the sciatic nerve [2, 9]: 45%
Percent Inhibition (%) of sorbitol accumulation in the sciatic nerve [2, 10]: 74%

solubility in water (in words) [6]: freely soluble in water
Compound: O=C1NC(=O)C2(CCOc3ccc(F)cc32)N1 (single isomer, unassigned) [sodium salt of d-6-fluoro-spiro-[chroman-4,4'-imidazolidine]-2',5'-dione]
